Assay [1] concerns the target T1, glucagon receptor (GCGR) overexpressed CHO-K1 cells or human primary hepatocytes (Homo sapiens, UniProt P47871).
T1 construct: expressed in transfected cells; host or cells: GCGR overexpressed CHO-K1 cells or human primary hepatocytes (endogenous receptor)
Briefly: Glucagon cAMP inhibition assay (Cisbio cAMP Dynamic 2 HTRF). It is filed as cell-based. In outline:
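HTRF read-out of glucagon-induced cAMP, with IC50 from non-linear regression. Cells (GCGR CHO-K1 or human primary hepatocytes) in HBSS/0.1% BSA/800 nM IBMX took compound dilutions for 30 min (final DMSO 1%), then EC50-level glucagon for 30 min at room temperature, then a 60 min lysis/detection step.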
On the technique in general: Time-resolved FRET reads energy transfer from a long-lived donor to a nearby acceptor.

The target of a further assay is T2, glucagon receptor (GCGR) (Homo sapiens, UniProt P47871).
T2 construct: expressed in transfected cells; host or cells: CHO-K1 cells overexpressing GCGR (membrane fractions)
Briefly: I125-glucagon binding assay (competition, GCGR membrane fractions). In outline:
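Competition of 0.0625 nM (final) I^125-glucagon for 30 min at 25° C, after 5 min compound preincubation, using 7.5 μg/well GCGR-overexpressing CHO-K1 membranes in 50 mM Tris pH 7.4, 0.5% BSA. Filtration onto PEI-coated GF/B, micro-beta counting, and non-linear regression gave IC50.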

The mark [2] stands for this setting: inhibition of glucagon (EC50 concentration) induced cAMP production.
Setting [3] is: competition with I125-glucagon 0.0625 nM, membrane fractions of GCGR overexpressed CHO-K1 cells.

Like-named read-outs stand apart in the source and are kept apart here.

T2 sequence (P47871 26-477): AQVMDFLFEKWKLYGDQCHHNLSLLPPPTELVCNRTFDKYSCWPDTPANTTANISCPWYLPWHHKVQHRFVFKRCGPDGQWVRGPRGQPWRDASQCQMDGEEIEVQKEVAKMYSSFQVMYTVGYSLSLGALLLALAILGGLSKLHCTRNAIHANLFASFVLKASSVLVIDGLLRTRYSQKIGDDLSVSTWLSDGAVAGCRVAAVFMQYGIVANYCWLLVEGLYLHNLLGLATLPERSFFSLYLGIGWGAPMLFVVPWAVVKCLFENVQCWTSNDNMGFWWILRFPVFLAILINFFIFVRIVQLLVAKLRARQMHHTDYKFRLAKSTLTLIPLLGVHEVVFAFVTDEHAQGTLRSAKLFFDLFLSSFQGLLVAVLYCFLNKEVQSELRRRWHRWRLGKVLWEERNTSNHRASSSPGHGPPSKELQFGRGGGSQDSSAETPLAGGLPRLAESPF
T1 sequence (P47871 26-477): as above

Broadly, the IC50 is the concentration at which inhibition is half-maximal. Higher therefore signals weaker potency. Consider `CCCC[C@@H](COc1ccc(-c2ccc(C(F)(F)F)cc2Cl)nc1)Nc1ccc(C(=O)NCCC(=O)O)cc1` [Compound 10-11, (S)-3-(4-((1-((6-(2-chloro-4-(trifluoromethyl)phenyl)pyridin-3-yl)oxy)hexan-2-yl)amino)benzamido)propanoic Acid], for which the “IC50 cAMP” value in assay [1] (setting [2]) turned out to be 537.4 nM. For the same compound, at glucagon receptor (GCGR) (setting [3]), the IC50 was 0.27 µM.
Turning to `CC[C@H](C)[C@@H](COc1ccc(-c2cc3ccccc3o2)cc1)Nc1ccc(C(=O)NCc2nnn[nH]2)cc1` [Compound 1-8], the “IC50 cAMP” value in assay [1] (setting [2]) came out at 3305 nM. The IC50 at glucagon receptor (GCGR) (setting [3]) was found to be 0.098 µM.
On to `CCCOC[C@H](Cc1ccc(-c2cc3ccccc3o2)cc1)Nc1ccc(C(=O)NCCC(=O)O)cc1` [Compound 19-26, (S)-3-(4-((1-(4-(benzofuran-2-yl)phenyl)-3-propoxypropan-2-yl)amino)benzamido)propanoic Acid], for which the “IC50 cAMP” value in assay [1] is 902.8 nM. Also, at glucagon receptor (GCGR), the half-maximal inhibitory concentration (IC50) was 0.592 µM.
`CC[C@H](C)[C@@H](COc1ccc(-c2cc3ccccc3o2)c(F)c1)Nc1ccc(C(=O)NCCC(=O)O)cc1` [Compound 8-7, 3-(4-(((2S,3S)-1-(4-(benzofuran-2-yl)-3-fluorophenoxy)-3-methylpentan-2-yl)amino)benzamido)propanoic Acid]: in assay [1] (setting [2]), the “IC50 cAMP” value amounted to 129 nM. Also, the IC50 on glucagon receptor (GCGR) (setting [3]) was 0.186 µM.
For the compound `CC[C@H](C)[C@@H](COc1ccc(-c2ccc(C(F)(F)F)cc2)cn1)Nc1ccc(C(=O)NCCC(=O)O)cc1` [Compound 15-12, 3-(4-(((2S,3S)-3-methyl-1-((5-(4-(trifluoromethyl)phenyl)pyridin-2-yl)oxy)pentan-2-yl)amino)benzamido)propanoic Acid], the “IC50 cAMP” value in assay [1] was 294 nM. The compound also came in with a half-inhibitory concentration (IC50) on glucagon receptor (GCGR) of 0.376 µM.
For the compound `COC(=O)CCNC(=O)c1ccc(N[C@H](COc2ccc(-c3nc4ccccc4s3)cc2)C(C)C)cc1` [Compound 1-31, Methyl (S)-3-(4-((1-(4-(benzo[d]thiazol-2-yl)phenoxy)-3-methylbutan-2-yl)amino)benzamido)propanoate], the “IC50 cAMP” value in assay [1] (setting [2]) is 83 nM. On glucagon receptor (GCGR) (setting [3]), this compound yielded a half-inhibitory concentration (IC50) of 5.77 µM.
Regarding `CCCC[C@@H](COc1ccc(-c2nnc(C(C)(C)C)o2)cc1)Nc1ccc(C(=O)NCCC(=O)O)cc1` [Compound 1-49, (S)-3-(4-((1-(4-(5-(tert-butyl)-1,3,4-oxadiazol-2-yl)phenoxy)hexan-2-yl)amino)benzamido)propanoic Acid], the “IC50 cAMP” value in assay [1] (setting [2]) turned out to be 7065 nM. This compound also showed an IC50 on glucagon receptor (GCGR) (setting [3]) of 7.2 µM.
`CCOC(=O)CCNC(=O)c1ccc(N[C@H](Cc2ccc(-c3ccc(C(F)(F)F)cc3)cc2)C(=O)Nc2ccc(OC(F)(F)F)cc2)cc1` [Compound 24-27, Ethyl (R)-3-(4-((1-oxo-1-((4-(trifluoromethoxy)phenyl)amino)-3-(4′-(trifluoromethyl)-[1,1′-biphenyl]-4-yl)propan-2-yl)amino)benzamido)propanoate]: the “IC50 cAMP” value in assay [1] is given as 318.5 nM. The compound also yielded an IC50 on glucagon receptor (GCGR) of 1.28 µM.
With `CCCC[C@H](Cc1ccc(-c2ccc(C(F)(F)F)cc2)cc1)Nc1ccc(C(=O)NCCC(=O)O)cc1` [Compound 19-1, (R)-3-(4-((1-(4′-(trifluoromethyl)-[1,1′-biphenyl]-4-yl)hexan-2-yl)amino)benzamido)propanoic Acid], the “IC50 cAMP” value in assay [1] is recorded as 393.8 nM. Moreover, on glucagon receptor (GCGR), the IC50 is 0.109 µM.
On to `Cc1cc(OC[C@@H](Cc2ccccc2)Nc2ccc(C(=O)NCCC(=O)O)cc2)cc(C)c1-c1ccc(C(F)(F)F)cc1` [Compound 2-1, (R)-3-(4-((1-((2,6-dimethyl-4′-(trifluoromethyl)-[1,1′-biphenyl]-4-yl)oxy)-3-phenylpropan-2-yl)amino)benzamido)propanoic Acid], for which the “IC50 cAMP” value in assay [1] (setting [2]) is 322.9 nM. In addition, the 50% inhibitory concentration (IC50) on glucagon receptor (GCGR) (setting [3]) worked out at 0.266 µM.
Taken in the same sequence, the figures for `CC(C)[C@@H](COc1ccc(-c2cc3ccccc3o2)cc1)Nc1ccc(C(=O)NCCC(=O)O)cc1` [Compound 1-2, (S)-3-(4-((1-(4-(benzofuran-2-yl)phenoxy)-3-methylbutan-2-yl)amino)benzamido)propanoic Acid] were 195.6 nM and 0.207 µM.
On to `CCCC[C@@H](COc1ccc(-c2ccc(Cl)cc2Cl)c(F)c1)Nc1ccc(C(=O)NCCC(=O)O)cc1` [Compound 8-16, (S)-3-(4-((1-((2′,4′-dichloro-2-fluoro-[1,1′-biphenyl]-4-yl)oxy)hexan-2-yl)amino)benzamido)propanoic Acid], for which, in assay [1] (setting [2]), the “IC50 cAMP” value stood at 135 nM. At glucagon receptor (GCGR) (setting [3]), this compound came in with an IC50 of 0.089 µM.
With `CC[C@H](C)[C@@H](COc1ccc(-c2ccc(C(F)(F)F)cc2Cl)nn1)Nc1ccc(C(=O)NCCC(=O)O)cc1` [Compound 17-4, 3-(4-(((2S,3S)-1-((6-(2-chloro-4-(trifluoromethyl)phenyl)pyridazin-3-yl)oxy)-3-methylpentan-2-yl)amino)benzamido)propanoic Acid], the “IC50 cAMP” value in assay [1] (setting [2]) came to 1266 nM. At glucagon receptor (GCGR) (setting [3]), this compound returned an IC50 of 0.609 µM.
Take `CC(C)C[C@@H](COc1ccc(-c2ccc(C(F)(F)F)cc2)nc1)Nc1ccc(C(=O)NCCC(=O)O)cc1` [Compound 10-17, (S)-3-(4-((4-methyl-1-((6-(4-(trifluoromethyl)phenyl)pyridin-3-yl)oxy)pentan-2-yl)amino)benzamido)propanoic Acid]: the “IC50 cAMP” value in assay [1] (setting [2]) is 847 nM. Also, at glucagon receptor (GCGR) (setting [3]), the 50% inhibitory concentration (IC50) is 0.542 µM.
With `CC[C@H](C)[C@@H](COc1ccc(-c2ccc(C(F)(F)F)cc2F)nn1)Nc1ccc(C(=O)NCCC(=O)O)cc1` [Compound 17-5, 3-(4-(((2S,3S)-1-((6-(2-fluoro-4-(trifluoromethyl)phenyl)pyridazin-3-yl)oxy)-3-methylpentan-2-yl)amino)benzamido)propanoic Acid], the “IC50 cAMP” value in assay [1] (setting [2]) is on record as 3332 nM. At glucagon receptor (GCGR) (setting [3]), this compound showed a half-inhibitory concentration (IC50) of 0.769 µM.
Turning to `O=C(O)CCNC(=O)c1ccc(N[C@@H](Cc2ccccc2)C(=O)Nc2ccc(-c3ccccc3C(F)(F)F)cc2)cc1` [Compound 23-23], in assay [1], the “IC50 cAMP” value is listed as 5800 nM. For the same compound, at glucagon receptor (GCGR), the half-maximal inhibitory concentration (IC50) is 4.15 µM.
For the compound `CC[C@H](C)[C@@H](COc1ccc(-c2cc3ccccc3o2)cc1)Nc1ccc(C(=O)NCCC(=O)O)cc1` [Compound 1-4, 3-(4-(((2S,3S)-1-(4-(benzofuran-2-yl)phenoxy)-3-methylpentan-2-yl)amino)benzamido)propanoic Acid], in assay [1] (setting [2]), the “IC50 cAMP” value is 528 nM. At glucagon receptor (GCGR) (setting [3]), the half-inhibitory concentration (IC50) was determined as 0.184 µM.
Turning to `CCC(C)[C@@H](COc1ccc(-c2nnc(C(F)(F)F)o2)cc1)Nc1ccc(C(=O)NCCC(=O)O)cc1` (some centres unmarked) [Compound 1-44, 3-(4-((3-methyl-1-(4-(5-(trifluoromethyl)-1,3,4-oxadiazol-2-yl)phenoxy)pentan-2-yl)amino)benzamido)propanoic Acid], in assay [1] (setting [2]), the “IC50 cAMP” value stood at 10000 nM. The compound further had an IC50 at glucagon receptor (GCGR) (setting [3]) of 0.388 µM.
For `CC[C@H](C)[C@@H](COc1nnc(-c2ccc(Cl)cc2Cl)o1)Nc1ccc(C(=O)NCCC(=O)O)cc1` [Compound 22-11, 3-(4-(((2S,3S)-1-((5-(2,4-dichlorophenyl)-1,3,4-oxadiazol-2-yl)oxy)-3-methylpentan-2-yl)amino)benzamido)propanoic Acid], the “IC50 cAMP” value in assay [1] is reported as above 30000 nM. The concentration for half-maximal inhibition (IC50) on glucagon receptor (GCGR) is above 30 µM.
Turning to `CCOC(=O)CCNC(=O)c1ccc(N[C@@H](Cc2ccc3ccccc3c2)C(=O)Nc2ccc(C(C)(C)C)cc2)cc1` [Compound 23-19, Ethyl (S)-3-(4-((1-((4-(tert-butyl)phenyl)amino)-3-(naphthalen-2-yl)-1-oxopropan-2-yl)amino)benzamido)propanoate], the “IC50 cAMP” value in assay [1] is recorded as 5400 nM. The half-maximal inhibitory concentration (IC50) on glucagon receptor (GCGR) (uM) was above 10 µM.
For `CC(C)[C@@H](COc1ccc(-c2cc3ccccc3o2)cc1)N(C)c1ccc(C(=O)NCCC(=O)O)cc1` [Compound 6-1, (S)-3-(4-((1-(4-(benzofuran-2-yl)phenoxy)-3-methylbutan-2-yl)(methyl)amino)benzamido)propanoic Acid], the “IC50 cAMP” value in assay [1] (setting [2]) was 204.2 nM. The compound further gave a half-inhibitory concentration (IC50) on glucagon receptor (GCGR) (setting [3]) of 0.391 µM.
Take `CC(C)[C@@H](CSc1ccc(-c2cc3ccccc3o2)cc1)Nc1ccc(C(=O)NCCC(=O)O)cc1` [Compound 5-1, (S)-3-(4-((1-((4-(benzofuran-2-yl)phenyl)thio)-3-methylbutan-2-yl)amino)benzamido)propanoic Acid]: the “IC50 cAMP” value in assay [1] (setting [2]) is 14405 nM. For the same compound, the IC50 at glucagon receptor (GCGR) (setting [3]) stood at 2.04 µM.
Taken in the same sequence, the figures for `CCCC[C@@H](COc1ccc(-c2ccc(Cl)cc2Cl)cc1)Nc1ccc(C(=O)NCc2nnn[nH]2)cc1` [Compound 1-18, (S)—N-((1H-tetrazol-5-yl)methyl)-4-((1-((2′,4′-dichloro-[1,1′-biphenyl]-4-yl)oxy)hexan-2-yl)amino)benzamide] were 1564 nM and 0.031 µM.
Consider `CC[C@H](C)[C@@H](COc1cc(C)c(-c2ccc(C(C)(C)C)cc2)c(C)c1)Nc1ccc(C(=O)NCCC(=O)O)cc1` [Compound 2-6, 3-(4-(((2S,3S)-1-((4′-(tert-butyl)-2,6-dimethyl-[1,1′-biphenyl]-4-yl)oxy)-3-methylpentan-2-yl)amino)benzamido)propanoic Acid], for which the “IC50 cAMP” value in assay [1] (setting [2]) amounted to 448 nM. This compound also came in with a 50% inhibitory concentration (IC50) at glucagon receptor (GCGR) (setting [3]) of 0.067 µM.
Regarding `O=C(O)CCNC(=O)c1ccc(N[C@H](Cc2ccc(-c3cc4ccccc4o3)cc2)C(=O)Nc2ccc(C(F)(F)F)cc2)cc1` [Compound 24-20, (R)-3-(4-((3-(4-(benzofuran-2-yl)phenyl)-1-oxo-1-((4-(trifluoromethyl)phenyl)amino)propan-2-yl)amino)benzamido)propanoic Acid], the “IC50 cAMP” value in assay [1] worked out at 1947 nM. This compound also registered an IC50 at glucagon receptor (GCGR) of 0.193 µM.
